# Test results taken from patent publication US12582641B2, “Sulfur-containing compound based on glutarimide skeleton and application thereof” (SHANGHAITECH UNIVERSITY, priority 2019, dated 2026).
# Test system: MM.1S cells
# Test: Proliferation inhibition (IC50) in MM.1S cells, cell viability assay
# Settings: Homo sapiens, MM1.S, 72 h, read-out: IC50 (nM), proliferation inhibitory activity of MM.1S cells (half inhibitory concentration)
row,SMILES,IC50 [nM]
1,"O=C1CCC(N2C(=O)c3cccc(SCc4ccc(CCCNC5CCCCC5)cc4)c3C2=O)C(=O)N1 (stereo not drawn) [SIAIS1227087, 4-((4-(3-(cyclohexylamino)propyl)benzyl)thio)-2-(2,6-dioxopiperidin-3-yl)isoindoline-1,3-dione]",0.283
2,"O=C1CCC(N2C(=O)c3cccc(SCc4ccc(CCCN5CCOCC5)cc4)c3C2=O)C(=O)N1 (stereo not drawn) [SIAIS1227091, 2-(2,6-dioxopiperidin-3-yl)-4-((4-(3-morpholinopropyl)benzyl)thio) isoindoline-1,3-dione]",2
3,"O=C1CCC(N2Cc3c(SCc4ccc(CN5CCOCC5)cc4)cccc3C2=O)C(=O)N1 (stereo not drawn) [SIAIS1220167, 3-(4-((4-(morpholinomethyl)benzyl)thio)-1-oxoisoindolin-2-yl)piperidine-2,6-dione]",0.25 ± 0.01
4,"O=C1CCC(N2Cc3c(SCCc4ccc(CNC5CCCCC5)cc4)cccc3C2=O)C(=O)N1 (stereo not drawn) [SIAIS1227007, 3-(4-((4-((cyclohexylamino)methyl)phenethyl)thio)-1-oxoisoindolin-2-yl)piperidine-2,6-dione]",0.67 ± 0.27
5,"CCN(CC)Cc1csc(CSc2cccc3c2CN(C2CCC(=O)NC2=O)C3=O)n1 (stereo not drawn) [SIAIS355002, 3-(4-(((4-((diethylamino)methyl)thiazol-2-yl)methyl)thio)-1-oxoisoindolin-2-yl)piperidine-2,6-dione]",1.07 ± 0.39
6,"O=C1CCC(N2Cc3c(SCCc4ccc(CNC56CC7CC(CC(C7)C5)C6)cc4)cccc3C2=O)C(=O)N1 (stereo not drawn) [SIAIS1224149, 3-(4-((4-(((adamantan-1-yl)amino)methyl)phenethyl)thio)-1-oxoisoindolin-2-yl)piperidine-2,6-dione]",0.44 ± 0.1
7,"O=C1CCC(N2Cc3c(SCCCCCCCN[C@@H]4CN5CCC4CC5)cccc3C2=O)C(=O)N1 (stereo partly drawn) [SIAIS1224035, 3-(1-oxo-4-((7-(((S)-quinuclidin-3-yl)amino)heptyl)thio)isoindolin-2-yl)piperidine-2,6-dione]",15.1
8,"CN1C(=O)CCC(N2Cc3c(SCCCCCCCNC45CC6CC(CC(C6)C4)C5)cccc3C2=O)C1=O (stereo not drawn) [SIAIS1221149, 3-(4-((7-(adamantan-1-ylamino)heptyl)thio)-1-oxoisoindolin-2-yl)-1-methylpiperidine-2,6-dione]",21.9
9,"CCN(CC)CCNCCCCCCCCSc1cccc2c1CN(C1CCC(=O)NC1=O)C2=O (stereo not drawn) [SIAIS1220037, 3-(4-((8-((2-(diethylamino)ethyl)amino)octyl)thio)-1-oxoisoindolin-2-yl)piperidine-2,6-dione]",0.83 ± 0.39
10,"C[C@@H](NCc1ccc(CSc2cccc3c2CN(C2CCC(=O)NC2=O)C3=O)cc1)C1CC1 (stereo partly drawn) [SIAIS1227173, 3-(4-((4-((((R)-1-cyclopropylethyl)amino)methyl)benzyl)thio)-1-oxoisoindolin-2-yl)piperidine-2,6-dione]",0.095
11,"O=C1CCC(N2Cc3cc(SCCCCCCCNC45CC6CC(CC(C6)C4)C5)ccc3C2=O)C(=O)N1 (stereo not drawn) [SIAIS271167, 3-(5-((7-((adamantan-1-yl)amino)heptyl)thio)-1-oxoisoindolin-2-yl)piperidine-2,6-dione]",164
12,"O=C1CCC(N2Cc3c(SCCCCCCCCN4CCCCC4=O)cccc3C2=O)C(=O)N1 (stereo not drawn) [SIAIS264019, 3-(1-oxo-4-((8-(2-oxopiperidin-1-yl)octyl)thio)isoindolin-2-yl)piperidine-2,6-dione]",0.13
13,O=C1CCC(N2Cc3c(SCCCCCCCNC45CC6CC(CC(O)(C6)C4)C5)cccc3C2=O)C(=O)N1 (stereo not drawn) [SIAIS1222141],0.342
14,"CN1CCN(Cc2ccc(CSc3cccc4c3CN(C3CCC(=O)NC3=O)C4=O)cc2)CC1 (stereo not drawn) [SIAIS1227169, 3-(4-((4-((4-methylpiperazin-1-yl)methyl)benzyl)thio)-1-oxoisoindolin-2-yl)piperidine-2,6-dione]",0.12
15,"CN1CCCN(CCCCCCCCSc2cccc3c2CN(C2CCC(=O)NC2=O)C3=O)CC1 (stereo not drawn) [SIAIS1220051, 3-(4-((8-(4-methyl-1,4-diazepan-1-yl)octyl)thio)-1-oxoisoindolin-2-yl)piperidine-2,6-dione]",0.75
16,"O=C1CCC(N2Cc3c(SCc4nc(CNC5CCCCC5)cs4)cccc3C2=O)C(=O)N1 (stereo not drawn) [SIAIS355003, 3-(4-(((4-((cyclohexylamino)methyl)thiazol-2-yl)methyl)thio)-1-oxoisoindolin-2-yl)piperidine-2,6-dione]",0.75 ± 0.1
17,"CC1(C)[C@@H]2CC[C@@]1(C)[C@@H](NCc1ccc(CSc3cccc4c3C(=O)N(C3CCC(=O)NC3=O)C4=O)cc1)C2 (stereo partly drawn) [SIAIS1221147, 2-(2,6-dioxopiperidin-3-yl)-4-((4-((((1R,2S,4R)-1,7,7-trimethylbicyclo[2.2.1]heptan-2-yl)amino)methyl)benzyl)thio)isoindoline-1,3-dione]",0.458
18,"O=C1CCC(N2Cc3c(SCCCCCCCN4CCOCC4)cccc3C2=O)C(=O)N1 (stereo not drawn) [SIAIS1220031, 3-(4-((7-morpholinoheptyl)thio)-1-oxoisoindolin-2-yl)piperidine-2,6-dione]",0.22 ± 0.04

# These reach a lower IC50. Values come first.
row,IC50 [nM],SMILES
1,0.03 ± 0.01,"CC1(C)CCN(Cc2ccc(CSc3cccc4c3CN(C3CCC(=O)NC3=O)C4=O)cc2)CC1 (stereo not drawn) [SIAIS1227113, 3-(4-((4-((4,4-dimethylpiperidin-1-yl)methyl)benzyl)thio)-1-oxoisoindolin-2-yl)piperidine-2,6-dione]"
2,0.073,"O=C1CCC(N2Cc3c(SCc4ccc(CN5CCCCC5)cc4F)cccc3C2=O)C(=O)N1 (stereo not drawn) [SIAIS1227175, 3-(4-((2-fluoro-4-(piperidin-1-ylmethyl)benzyl)thio)-1-oxoisoindolin-2-yl)piperidine-2,6-dione]"
3,0.022,"O=C1CCC(N2Cc3c(SCc4ccc(CN(C5CCCCC5)C5CCCCC5)cc4)cccc3C2=O)C(=O)N1 (stereo not drawn) [SIAIS1227059, 3-(4-((4-((dicyclohexylamino)methyl)benzyl)thio)-1-oxoisoindolin-2-yl)piperidine-2,6-dione]"
4,0.07,"O=C1CCC(N2Cc3c(SCCCCCCNC(=O)C45CC6CC(CC(C6)C4)C5)cccc3C2=O)C(=O)N1 (stereo not drawn) [SIAIS1222143, N-(6-((2-(2,6-dioxopiperidin-3-yl)-1-oxoisoindolin-4-yl)thio)hexyl)adamantane-1-carboxamide]"
5,0.01,"O=C1CCC(N2Cc3c(SCCCCCCCNC4C5CC6CC(C5)CC4C6)cccc3C2=O)C(=O)N1 (stereo not drawn) [SIAIS1220159, 3-(4-((7-((adamantan-2-yl)amino)heptyl)thio)-1-oxoisoindolin-2-yl)piperidine-2,6-dione]"
6,0.038 ± 0.006,"CC1(C)CCN(CCCCCCCSc2cccc3c2CN(C2CCC(=O)NC2=O)C3=O)CC1 (stereo not drawn) [SIAIS1221027, 3-(4-((7-(4,4-dimethylpiperidin-1-yl)heptyl)thio)-1-oxoisoindolin-2-yl)piperidine-2,6-dione]"
7,0.04 ± 0.01,"O=C1CCC(N2Cc3c(SCCCCCCCN4CCC5(CCCCC5)CC4)cccc3C2=O)C(=O)N1 (stereo not drawn) [SIAIS1221015, 3-(4-((7-(3-azaspiro[5.5]undecan-3-yl)heptyl)thio)-1-oxoisoindolin-2-yl)piperidine-2,6-dione]"
8,0.03,"O=C1CCC(N2Cc3c(SCCCCCCCN4CCCCCC4)cccc3C2=O)C(=O)N1 (stereo not drawn) [SIAIS1220163, 3-(4-((7-(azepan-1-yl)heptyl)thio)-1-oxoisoindolin-2-yl)piperidine-2,6-dione]"
9,0.051,"O=C1CCC(N2Cc3c(SCCCCCN4CCC5(CCCCC5)CC4)cccc3C2=O)C(=O)N1 (stereo not drawn) [SIAIS1221123, 3-(4-((5-(3-azaspiro[5.5]undecan-3-yl)pentyl)thio)-1-oxoisoindolin-2-yl)piperidine-2,6-dione]"
